Experimental data reported in the NIST ThermoML archive (doi:10.1016/j.jct.2017.10.016).

Test: xn = mol fraction of the nth substance listed
Details: Liquid, Buoyancy - hydrostatic balance with magnetic suspension - one sinker

C=C(F)C(F)(F)F [2,3,3,3-tetrafluoro-1-propene] + CCC
Details | mass density [kg/m3]
255.05 K, x1 = 0.217 | 705.65
255.24 K, x1 = 0.322 | 772.45
257.01 K, x1 = 0.422 | 831.62
259.89 K, x1 = 0.322 | 763.53
259.9 K, x1 = 0.533 | 897.69
260.22 K, x1 = 0.217 | 695.43
260.27 K, x1 = 0.422 | 825.19
264.82 K, x1 = 0.322 | 754.19
264.85 K, x1 = 0.533 | 887.37
264.95 K, x1 = 0.217 | 686.56
265.38 K, x1 = 0.422 | 815.01
269.81 K, x1 = 0.533 | 876.78
269.89 K, x1 = 0.217 | 677.65
269.95 K, x1 = 0.322 | 744.13
270.15 K, x1 = 0.422 | 805.93
270.16 K, x1 = 0.113 | 610.61
274.77 K, x1 = 0.533 | 865.74
274.83 K, x1 = 0.217 | 668.53
274.96 K, x1 = 0.113 | 602.76
275.02 K, x1 = 0.625 | 920.19
275.16 K, x1 = 0.422 | 794.82
275.2 K, x1 = 0.322 | 733.29
279.91 K, x1 = 0.217 | 658.85
279.98 K, x1 = 0.422 | 784.38
280.01 K, x1 = 0.113 | 594.34
280.03 K, x1 = 0.322 | 723.1
280.14 K, x1 = 0.625 | 907.78
280.17 K, x1 = 0.533 | 852.23
284.9 K, x1 = 0.322 | 712.55
284.91 K, x1 = 0.217 | 649.05
284.93 K, x1 = 0.113 | 585.81
284.95 K, x1 = 0.533 | 840.56
284.97 K, x1 = 0.422 | 774.16
285.18 K, x1 = 0.625 | 895.02
289.94 K, x1 = 0.533 | 828.05
289.97 K, x1 = 0.422 | 762.51
290 K, x1 = 0.533 | 827.87
290.02 K, x1 = 0.113 | 576.78
290.02 K, x1 = 0.217 | 638.62
290.08 K, x1 = 0.322 | 700.83
290.11 K, x1 = 0.625 | 882
294.96 K, x1 = 0.322 | 689.46
294.96 K, x1 = 0.422 | 750.87
294.97 K, x1 = 0.533 | 815.76
295 K, x1 = 0.113 | 567.56
295.22 K, x1 = 0.625 | 868.11
299.04 K, x1 = 0.422 | 742.17
299.86 K, x1 = 0.113 | 558.16
299.91 K, x1 = 0.533 | 803.63
300.13 K, x1 = 0.625 | 854.48
